The values that follow come from article PMC9029776, “Development and Experimental Validation of Regularized Machine Learning Models Detecting New, Structurally Distinct Activators of PXR” (Cells, 2022).

The target in the first data set is T1, pregnane X receptor (PXR) (Homo sapiens, UniProt O75469).
T1 construct: gene NR1I2; PXR-LBD (132-188) + (189-434)
T1 sequence (O75469 132-188): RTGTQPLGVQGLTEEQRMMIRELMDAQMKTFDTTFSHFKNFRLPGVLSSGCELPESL
T1 sequence (O75469 189-434): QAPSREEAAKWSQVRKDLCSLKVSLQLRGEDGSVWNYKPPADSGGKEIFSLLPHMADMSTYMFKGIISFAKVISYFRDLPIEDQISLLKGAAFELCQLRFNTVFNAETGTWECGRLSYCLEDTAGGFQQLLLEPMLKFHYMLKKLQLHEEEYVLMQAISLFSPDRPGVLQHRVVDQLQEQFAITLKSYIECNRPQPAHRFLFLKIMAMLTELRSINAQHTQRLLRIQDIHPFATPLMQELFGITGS
As to the kind of experiment: mammalian two-hybrid PXR-LBD assembly assay in HepG2. Type of data set: cell-based. To be noted: hepg2, 10 µM.
On to MolPort-006-630-110 [compound 39], for which the “Measured Activity ^1” value is on record as 80.37 % of rifampicin activity at 10 µM. On to MolPort-006-629-818 [compound 34], for which the “Measured Activity ^1” value is given as 100.91 % of rifampicin activity at 10 µM. For MolPort-000-431-934 [compound 43], the “Measured Activity ^1” value is on record as 71.67 % of rifampicin activity at 10 µM. On to MolPort-000-431-925 [compound 22], for which the “Measured Activity ^1” value is given as 91.00 % of rifampicin activity at 10 µM.

A further data set addresses T2, pregnane X receptor (PXR) (Homo sapiens, UniProt O75469).
T2 construct: gene NR1I2; PXR-LBD (132-188) + (189-434) assembly; LBD (108-434) in co-factor assays
T2 sequence (O75469 108-434): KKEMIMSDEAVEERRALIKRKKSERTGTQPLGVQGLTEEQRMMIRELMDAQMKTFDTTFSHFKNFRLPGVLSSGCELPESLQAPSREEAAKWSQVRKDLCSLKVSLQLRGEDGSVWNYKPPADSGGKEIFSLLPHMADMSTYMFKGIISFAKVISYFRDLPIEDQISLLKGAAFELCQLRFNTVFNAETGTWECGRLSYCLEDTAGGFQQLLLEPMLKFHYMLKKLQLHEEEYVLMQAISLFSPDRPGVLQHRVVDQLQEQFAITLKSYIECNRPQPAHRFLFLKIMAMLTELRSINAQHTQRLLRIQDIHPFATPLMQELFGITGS
As to the kind of experiment: mammalian two-hybrid PXR-LBD assembly assay in HepG2; NCOR2 release, NCOA1 recruitment; SPA70-blocked CYP3A4 reporter. It counts as cell-based. To be noted: hepg2, 10 µM.
For MolPort-000-431-927 [compound 42], the “Measured Activity ^1” value is 115.84 % of rifampicin activity at 10 µM. Take MolPort-006-630-224 [compound 25]: the “Measured Activity ^1” value was 136.87 % of rifampicin activity at 10 µM. On the same count and under the same terms, under MolPort-002-216-386 [compound 53] stands 84.18 % of rifampicin activity at 10 µM.
